This passage reports MIC and hemolysis results from ChEMBL document CHEMBL5537158, “Polymyxins with Potent Antibacterial Activity against Colistin-Resistant Pathogens: Fine-Tuning Hydrophobicity with Unnatural Amino Acids” (J Med Chem, 2024).

One may read the MIC as the lowest concentration that inhibits growth of the organism.

Values after ≈ are worked out from the molar mass of the structure shown. Positions of bridges follow the written chain, without caps; N, C: chain ends. Non-standard residues stand in square brackets, D forms with d. Residues, ends and D or L forms follow the SMILES beside them. *: point of attachment. dPhe(4-CF3) = N[C@H](Cc1ccc(C(F)(F)F)cc1)C(=O)O; dPhe(F5) = N[C@H](Cc1c(F)c(F)c(F)c(F)c1F)C(=O)O; Benzoyl(4-Ph) = O=C(c1ccc(-c2ccccc2)cc1)*; dPhe(4-Cl) = N[C@H](Cc1ccc(Cl)cc1)C(=O)O; dPhe(3-F) = N[C@H](Cc1cccc(F)c1)C(=O)O; dPhe(4-F) = N[C@H](Cc1ccc(F)cc1)C(=O)O; dPhe(2-F) = N[C@H](Cc1ccccc1F)C(=O)O; Octanoyl = CCCCCCCC(=O)*; Dab = NCC[C@H](N)C(=O)O

The subject of series [1] is Acinetobacter baumannii. The experiment in a line: Antimicrobial activity against colistin resistant Acinetobacter baumannii ATCC 3658/17 assessed as bacterial growth inhibition incubated for 20 hrs by broth microdilution method. It is filed as functional. (In general: In broth dilution the organism is exposed to a series of concentrations in liquid medium.)
Series [2] concerns Acinetobacter baumannii. The experiment in a line: Antimicrobial activity against Acinetobacter baumannii ATCC 19606 assessed as bacterial growth inhibition incubated for 20 hrs by broth microdilution method. It is filed as functional.
Series [3] concerns Escherichia coli. The experiment in a line: Antibacterial activity against Escherichia coli ATCC 25922 assessed as bacterial growth inhibition incubated for 20 hrs by broth microdilution method. The format is functional.
Series [4] in a line: Hemolytic activity in human RBC at 400 ug/ml after 1 hr. The format is toxicity, cell-based, Erythrocyte. The conditions noted are these: red blood cells (erythrocytes), at 400 µg/mL, read-out: Activity.
The subject of a further series is Pseudomonas aeruginosa. The experiment in a line: Antimicrobial activity against Pseudomonas aeruginosa PAO1 assessed as bacterial growth inhibition incubated for 20 hrs by broth microdilution method. The format is functional.
Series [5] concerns Escherichia coli. The experiment in a line: Antimicrobial activity against […] Escherichia coli harboring mcr-1 assessed as bacterial growth inhibition incubated for 20 hrs by broth microdilution method. The format is functional.

With `CCCCCCCC(=O)N[C@@H](CCN)C(=O)N[C@H](C(=O)N[C@@H](CCN)C(=O)N[C@H]1CCNC(=O)[C@H]([C@@H](C)O)NC(=O)[C@H](CCN)NC(=O)[C@H](CCN)NC(=O)[C@H](CC(C)C)NC(=O)[C@@H](Cc2ccccc2F)NC(=O)[C@H](CCN)NC1=O)[C@@H](C)O` (Octanoyl-[Dab]T[Dab][Dab][Dab][dPhe(2-F)]L[Dab][Dab]T; lactam 4-C), the MIC was 0.5 µg/mL (≈ 0.414 µM) in the series with Acinetobacter baumannii [1], 0.06 µg/mL (≈ 0.0497 µM) in the series on Acinetobacter baumannii [2] and 0.123 µg/mL (≈ 0.102 µM) with Escherichia coli [3].
`CCCCCCCC(=O)N[C@@H](CCN)C(=O)N[C@H](C(=O)N[C@@H](CCN)C(=O)N[C@H]1CCNC(=O)[C@H]([C@@H](C)O)NC(=O)[C@H](CCN)NC(=O)[C@H](CCN)NC(=O)[C@H](CC(C)C)NC(=O)[C@@H](Cc2cccc(F)c2)NC(=O)[C@H](CCN)NC1=O)[C@@H](C)O` (Octanoyl-[Dab]T[Dab][Dab][Dab][dPhe(3-F)]L[Dab][Dab]T; lactam 4-C) [listing 1 of 2 here]: the hemolysis at 1 h, 400 ug/ml in series [4] was less than 10%.
Consider `CCCCCCCC(=O)N[C@@H](CCN)C(=O)N[C@H](C(=O)N[C@@H](CCN)C(=O)N[C@H]1CCNC(=O)[C@H]([C@@H](C)O)NC(=O)[C@H](CCN)NC(=O)[C@H](CCN)NC(=O)[C@H](CC(C)C)NC(=O)[C@@H](Cc2cccc(F)c2)NC(=O)[C@H](CCN)NC1=O)[C@@H](C)O` (Octanoyl-[Dab]T[Dab][Dab][Dab][dPhe(3-F)]L[Dab][Dab]T; lactam 4-C) [listing 2 of 2 here], for which the values for the MIC in the series on Pseudomonas aeruginosa, in the series with Acinetobacter baumannii [1] and in the series on Acinetobacter baumannii [2] were 0.25 µg/mL (≈ 0.207 µM), 4 µg/mL (≈ 3.31 µM) and 0.25 µg/mL (≈ 0.207 µM), respectively.
For `CCCCCCCC(=O)N[C@@H](CCN)C(=O)N[C@H](C(=O)N[C@@H](CCN)C(=O)N[C@H]1CCNC(=O)[C@H]([C@@H](C)O)NC(=O)[C@H](CCN)NC(=O)[C@H](CCN)NC(=O)[C@H](CC(C)C)NC(=O)[C@@H](Cc2ccc(C(F)(F)F)cc2)NC(=O)[C@H](CCN)NC1=O)[C@@H](C)O` (Octanoyl-[Dab]T[Dab][Dab][Dab][dPhe(4-CF3)]L[Dab][Dab]T; lactam 4-C), the hemolysis at 1 h, 400 ug/ml in series [4] was less than 10%.
On the same count and under the same terms, with `CCCCCCCC(=O)N[C@@H](CCN)C(=O)N[C@H](C(=O)N[C@@H](CCN)C(=O)N[C@H]1CCNC(=O)[C@H]([C@@H](C)O)NC(=O)[C@H](CCN)NC(=O)[C@H](CCN)NC(=O)[C@H](CC(C)C)NC(=O)[C@@H](Cc2ccc(Cl)cc2)NC(=O)[C@H](CCN)NC1=O)[C@@H](C)O` (Octanoyl-[Dab]T[Dab][Dab][Dab][dPhe(4-Cl)]L[Dab][Dab]T; lactam 4-C) the figure was less than 10%.
For the molecule `CCCCCCCC(=O)N[C@@H](CCN)C(=O)N[C@H](C(=O)N[C@@H](CCN)C(=O)N[C@H]1CCNC(=O)[C@H]([C@@H](C)O)NC(=O)[C@H](CCN)NC(=O)[C@H](CCN)NC(=O)[C@H](CC(C)C)NC(=O)[C@@H](Cc2ccc(F)cc2)NC(=O)[C@H](CCN)NC1=O)[C@@H](C)O` (Octanoyl-[Dab]T[Dab][Dab][Dab][dPhe(4-F)]L[Dab][Dab]T; lactam 4-C) [listing 1 of 2 here], the hemolysis at 1 h, 400 ug/ml in series [4] was less than 10%.
In the case of `CCCCCCCC(=O)N[C@@H](CCN)C(=O)N[C@H](C(=O)N[C@@H](CCN)C(=O)N[C@H]1CCNC(=O)[C@H]([C@@H](C)O)NC(=O)[C@H](CCN)NC(=O)[C@H](CCN)NC(=O)[C@H](CC(C)C)NC(=O)[C@@H](Cc2ccc(F)cc2)NC(=O)[C@H](CCN)NC1=O)[C@@H](C)O` (Octanoyl-[Dab]T[Dab][Dab][Dab][dPhe(4-F)]L[Dab][Dab]T; lactam 4-C) [listing 2 of 2 here], the MIC was found to be 2 µg/mL (≈ 1.66 µM) with Escherichia coli [5], 0.25 µg/mL (≈ 0.207 µM) in the series on Acinetobacter baumannii [1], 0.06 µg/mL (≈ 0.0497 µM) in the series on Acinetobacter baumannii [2] and 0.03 µg/mL (≈ 0.0248 µM) in the series on Escherichia coli [3].
As to `CCCCCCCC(=O)N[C@@H](CCN)C(=O)N[C@H](C(=O)N[C@@H](CCN)C(=O)N[C@H]1CCNC(=O)[C@H]([C@@H](C)O)NC(=O)[C@H](CCN)NC(=O)[C@H](CCN)NC(=O)[C@H](CC(C)C)NC(=O)[C@@H](Cc2c(F)c(F)c(F)c(F)c2F)NC(=O)[C@H](CCN)NC1=O)[C@@H](C)O` (Octanoyl-[Dab]T[Dab][Dab][Dab][dPhe(F5)]L[Dab][Dab]T; lactam 4-C) [listing 1 of 2 here], the hemolysis at 1 h, 400 ug/ml in series [4] was less than 10%.
Regarding `CCCCCCCC(=O)N[C@@H](CCN)C(=O)N[C@H](C(=O)N[C@@H](CCN)C(=O)N[C@H]1CCNC(=O)[C@H]([C@@H](C)O)NC(=O)[C@H](CCN)NC(=O)[C@H](CCN)NC(=O)[C@H](CC(C)C)NC(=O)[C@@H](Cc2c(F)c(F)c(F)c(F)c2F)NC(=O)[C@H](CCN)NC1=O)[C@@H](C)O` (Octanoyl-[Dab]T[Dab][Dab][Dab][dPhe(F5)]L[Dab][Dab]T; lactam 4-C) [listing 2 of 2 here], the MIC in the series with Pseudomonas aeruginosa was 0.25 µg/mL (≈ 0.195 µM); with Acinetobacter baumannii [1], 0.5 µg/mL (≈ 0.391 µM); in the series on Acinetobacter baumannii [2], less than 0.125 µg/mL; in the series on Escherichia coli [3], less than 0.125 µg/mL.
As for `CC[C@H](C)[C@@H]1NC(=O)[C@@H](CC(C)C)NC(=O)[C@H](CCN)NC(=O)[C@@H](NC(=O)[C@@H](CO)NC(=O)[C@@H](NC(=O)[C@H](CCN)NC(=O)c2ccc(-c3ccccc3)cc2)[C@@H](C)O)CCNC(=O)[C@H](CC(C)C)NC(=O)[C@H](CCN)NC(=O)[C@H](CCN)NC1=O` ({Benzoyl(4-Ph)}-[Dab]T[dS][Dab][Dab][dL]I[Dab][Dab]L; lactam 4-C), in series [4], the hemolysis at 1 h, 400 ug/ml is less than 10%.
